Laboratory results reported in publication PMC12386606, “Evaluation of the In Vitro Blood–Brain Barrier Transport of Ferula persica L. Bioactive Compounds” (International Journal of Molecular Sciences, 2025).
“And” between values parts separate entries of the source, which are not always exact repeats. Identical values can stand only once. Counter-ions that a name gives are not always drawn.

What was measured:
[1] = oil/water partition coefficient; Table 1; ref PubChem; cited from earlier work
[2] = Parallel artificial membrane permeability assay for the blood–brain barrier (PAMPA-BBB); settings: for AerExt log Pe: compound within AerExt donor solution; for AerExt log Pe / RootExt log Pe: 37 °C, 4 h, PBS pH 7.4, n.q. = not quantified in the acceptor plate; for RootExt log Pe: compound within RootExt donor solution; for Papp at 4 h: PAMPA, pH 7.4; for AerExt Cross BBB Potential: compound within AerExt; for AerExt Cross BBB Potential / RootExt Cross BBB Potential: PAMPA-BBB; for RootExt Cross BBB Potential: compound within RootExt
Description: The permeability of bioactive compounds from AerExt and RootExt across the BBB was assessed using the PAMPA-BBB assay, following the methodology described by [11]. Firstly, the BBB solution was prepared by dissolving 8 mg of PBL and 4 mg of cholesterol in 600 μL of n-dodecane. The initial donor solution was prepared by mixing 1 mL of AerExt or RootExt (at 10 mg mL^−1 in EtOH) with 1 mL of buffer (PBS, pH = 7.4, 10 mM). The filter membrane of the donor plate was coated with 5 μL of BBB solution. The acceptor plate was filled with 350 μL of buffer, and the donor plate was carefully placed on top of the acceptor plate to form a “sandwich-like” assembly. Subsequently, 350 μL of the donor solution was added to the donor plate, which was then covered and incubated at 37 °C for 4 h in the dark. After the incubation time, 300 μL of the solution was collected from each plate, transferred into separate vials, and evaporated using a SpeedVac system at 40 °C under 13 mbar pressure. The dried acceptor and donor solutions were dissolved in 50 μL of pure EtOH before being subjected to HPLC-Q-TOF-MS/MS and GC-Q-TOF-MS analysis. Permeability (Pe) across the PAMPA-BBB of the bioactive compound was calculated according to Equation (1) [54], with modifications in concentration rates.Pe = −ln[1 − CA(t)/Cequilibrium]/(A × (1/VD + 1/VA) × t)(1)
Cequilibrium was calculated according to Equation (2):Cequilibrium = [CD(t) × VD + CA(t) × VA]/(VD + VA)(2)
The HPLC-MS and GC-MS chromatograms were processed using the Agilent Mass Hunter Qualitative software (version B.10.0) to verify the retention time and exact mass of the compounds previously reported by us [25] and to extract their peak area to calculate the BBB permeability.

[3] = system: HBMEC cells; assay: Blood–brain barrier transport study in HBMEC Transwell monolayer; settings: for AerExt Te (%) ± SD 2 h / AerExt Te (%) ± SD 4 h / AerExt Te (%) ± SD 24 h: AerExt 40 µg mL^−1 apical; for AerExt Te (%) ± SD 2 h / AerExt Te (%) ± SD 4 h / AerExt Te (%) ± SD 24 h / RootExt Te (%) ± SD 2 h / RootExt Te (%) ± SD 4 h / RootExt Te (%) ± SD 24 h: n.q. = not quantified in the basolateral compartment; for RootExt Te (%) ± SD 2 h / RootExt Te (%) ± SD 4 h / RootExt Te (%) ± SD 24 h: RootExt 20 µg mL^−1 apical; for crossing of the HBMEC-BBB: AerExt 40 µg mL^−1 / RootExt 20 µg mL^−1, 2, 4, 24 h; for abundance in the apical compartment relative to the basolateral compartment (times higher) / Te of newly formed sulfated metabolites: after AerExt 40 µg mL^−1 treatment of HBMEC; for Te of newly formed sulfated metabolites: tentatively identified metabolites; for AerExt Te (%) ± SD 24 h / RootExt Te (%) ± SD 24 h / Te of newly formed sulfated metabolites: 24 h
Description: After the toxicity evaluation, the HBMEC cell line was also used as a simplified in vitro model of the BBB endothelium. Cells were seeded at a density of 1.6 × 10^5 cells/cm^2 in 12-well Transwell® plates (Corning Costar Corp., Corning, USA) with a pore diameter of 0.4 μm, pre-coated with type I rat tail collagen (100 μg mL^−1) [55]. The culture medium was renewed every 2 days until a monolayer cell structure was formed (see Supplementary Figure S2), and transport experiments were initiated after 10 days. In transport experiments, the medium in the apical (upper) compartment of the Transwell system was removed, and 0.5 mL of AerExt or RootExt at a concentration of 40 μg mL^−1 and 20 μg mL^−1, respectively, was added to these compartments (applied in duplicate). Also, a medium containing 0.4% (v/v) ethanol was used as control group. The basolateral (lower) compartments were filled with 1.5 mL of fresh culture medium. The cells were incubated under these conditions for 2, 4, and 24 h.
At the end of the incubation periods, media samples were collected from both chambers and lyophilized using a freeze-drying system from Martin Christ (Osterode am Harz, Germany). The samples were stored at −80 °C until analysis. The collected samples were subjected to chemical analyses to evaluate the ability of bioactive compounds contained in the extracts to pass through the cell monolayer.
The transport efficiency (Te) of bioactive substances was calculated based on Equation (3), described by [56]:Te (%) = CLower/CUpper × 100(3)
This calculation was performed to understand whether the compound crosses the cell layer and how efficiently it is transported.
For this purpose, 0.2 mL of cold water (H2O) was added to the samples, and the samples were vortexed for 10 s. Then, 0.8 mL of cold methanol was added and vortexed again for 10 s. Then, the mixture was centrifuged at 14,000 rpm for 5 min, and the supernatant was carefully transferred to a 1.5 mL Eppendorf tube and dried in a SpeedVac device at 40 °C and 13 bar pressure. Finally, the dried samples were resuspended in 25 μL of pure ethanol for their subsequent analysis.
For HPLC-Q-TOF MS/MS analysis, aliquots of 2 μL were injected into an HPLC model 1290 coupled to a Q-TOF series 6540 (Agilent Technologies, Waldbronn, Germany). For GC-Q-TOF MS analysis, aliquots of 1 μL were injected with a split ratio of 1:10 into a GC model 7890B coupled to a Q-TOF series 7200 (Agilent Technologies, Waldbronn, Germany). The HPLC-MS and GC-MS chromatograms were processed using the Agilent Mass Hunter Qualitative software (version B.10.0) to verify the retention time and exact mass of the compounds previously reported by us [25] and to extract their peak area to calculate the BBB permeability.

Row | Compound | log p [1] | RootExt log Pe [2] | AerExt Te (%) ± SD 2 h [3] | AerExt Te (%) ± SD 4 h [3] | AerExt Te (%) ± SD 24 h [3] | other results
1 | CC(C)=CCCC(C)(O)[C@H]1CC[C@]2(C)[C@@H]1[C@H](O)C[C@@H]1[C@@]3(C)CC[C@H](O)C(C)(C)[C@@H]3CC[C@]12C (stereo in doubt) [Protopanaxadiol] | 7.2 | n.q. |  |  |  | AerExt log Pe [2]: n.q.
2 | COc1ccc(O)c(C=O)c1 [2-hydroxy-5-methoxybenzaldehyde] | 1.8 |  | 18.8 ± 2.3% | 9.1 ± 1.2% | 11.0 ± 1.3% | RootExt Te (%) ± SD 2 h [3]: 31.8 ± 8.0%; RootExt Te (%) ± SD 4 h [3]: 36.3 ± 10.9%; RootExt Te (%) ± SD 24 h [3]: 164.8 ± 21.0%
3 | CC(=O)c1ccc(O)c(O)c1 [3,4-dihydroxyacetophenone] | 1.5 |  |  |  |  | Papp at 4 h [2]: 17.4 ×10⁻⁶ cm/s
4 | CC12CCC3C(CC3(C)C)C(C)(CCC1=O)O2 (stereo not shown) [3,7-epoxycaryophyllan-6-One] | 2.8 |  |  |  |  | 
5 | O=Cc1cccc(C(=O)O)c1O [3-formylsalicylic acid] | 1.0 | −5.50 |  |  |  | 
6 | O=C(/C=C/c1ccc(O)c(O)c1)OC1C(O)CC2(O)CC1OC2=O (stereo not shown) [4-caffeoylquinic acid lactone] | 0.4 |  |  |  |  | AerExt Cross BBB Potential [2]: + (log Pe < −6.5)
7 | O=Cc1ccc(O)cc1 [4-hydroxybenzaldehyde] |  |  | 23.3 ± 3.1% | 18.5 ± 0.3% | 49.4 ± 5.9% | RootExt Te (%) ± SD 2 h [3]: 62.1 ± 21.9%; RootExt Te (%) ± SD 4 h [3]: 57.5 ± 1.7%; RootExt Te (%) ± SD 24 h [3]: 184.6 ± 23.0%
8 | Cc1ncsc1CCO [4-methyl-5-thiazoleethanol] | 0.8 |  |  |  |  | 
9 | O=c1ccc2cc(O)c(O)cc2o1 [6,7-dihydroxycoumarin] | 1.2 | n.q. |  |  |  | RootExt Cross BBB Potential [2]: –
10 | CC(=O)OC[C@H]1O[C@@H](Oc2cc(O)c3c(=O)c(-c4ccc(O)cc4)coc3c2)[C@H](O)[C@@H](O)[C@@H]1O [6″-O-acetylgenistin] | 0.9 |  |  |  |  | AerExt log Pe [2]: n.q.
11 | COc1cc2ccc(=O)oc2cc1O [7-hydroxy-6-methoxycoumarin] | 1.5 |  | 0.6 ± 0.2% | 1.9 ± 0.1% | 6.1 ± 1.5% | RootExt Te (%) ± SD 2 h [3]: n.q.; RootExt Te (%) ± SD 4 h [3]: n.q.; RootExt Te (%) ± SD 24 h [3]: n.q.
12 | CC1=C[C@H]2[C@@H](CC1=O)[C@H](C)C[C@H](O)[C@H]2C(C)C [8-hydroxyageraphorone] | 2.9 |  | n.q. | n.q. | n.q. | RootExt Te (%) ± SD 2 h [3]: n.q.; RootExt Te (%) ± SD 4 h [3]: n.q.; RootExt Te (%) ± SD 24 h [3]: 124.7 ± 16.9%
13 | C=C(C)C(O)CCC(C)C1CCC2(C)C3CCC4C(C)(C)C(O)CCC45CC35CCC12C (stereo not shown) [9,19-cyclolanost-25-ene-3,24-diol] | 8.6 | −5.79 |  |  |  | AerExt log Pe [2]: −5.60; AerExt Cross BBB Potential [2]: + (log Pe < −6.5); RootExt Cross BBB Potential [2]: + (log Pe < −6.5)
14 | C=CC(C)(O)CC/C=C(\C)CCC=C(C)C (stereo not shown) [(E)-nerolidol] | 4.6 | n.q. |  |  |  | AerExt log Pe [2]: n.q.
15 | C[C@@H]1CCCC2=CC[C@@H]3[C@@H](C3(C)C)[C@]21C [(–)-aristolene] | 4.7 | n.q. |  |  |  | AerExt log Pe [2]: n.q.
16 | C=C1CC[C@H]2O[C@]2(C)CC[C@@H]2[C@@H]1CC2(C)C [(–)-caryophyllene oxide] | 3.6 |  | 4.3 ± 0.1% | 8.6 ± 0.6% | 8.8 ± 0.7% | RootExt Te (%) ± SD 2 h [3]: n.q.; RootExt Te (%) ± SD 4 h [3]: n.q.; RootExt Te (%) ± SD 24 h [3]: n.q.
17 | CC1=CCC[C@@H](C)[C@]12CC[C@@H](C(C)(C)O)C2 [Agarospirol] | 3.7 | n.q. |  |  |  | AerExt log Pe [2]: n.q.

Row | Compound | log p [1] | RootExt log Pe [2] | AerExt Te (%) ± SD 2 h [3] | AerExt Te (%) ± SD 4 h [3] | AerExt Te (%) ± SD 24 h [3] | other results
18 | CC1=C2CCC(C)C2CC(C(C)(C)O)CC1 (stereo not shown) [Bulnesol] | 3.8 | n.q. |  |  |  | AerExt log Pe [2]: n.q.
19 | COc1cc(-c2cc(=O)c3c(O)cc(O)cc3o2)ccc1O [Chrysoeriol] | 1.7 |  |  |  |  | AerExt log Pe [2]: n.q.
20 | COc1ccc(-c2cc(=O)c3c(O)cc(O)cc3o2)cc1O [Diosmetin] | 1.7 |  |  |  |  | Papp at 4 h [2]: 148 ×10⁻⁶ cm/s
21 | C=CCc1cc(OC)c(OC)c(OC)c1 [Elemicin] | 2.5 |  |  |  |  | 
22 | CCOC(=O)/C=C/c1ccc(O)c(O)c1 [Ethyl caffeate] | 2.6 |  |  |  |  | 
23 | COc1cc(/C=C/C(=O)O)ccc1O [Ferulic acid] |  | n.q. | 1.9 ± 0.2% | 1.9 ± 0.2% | 19.8 ± 10.3% | AerExt Te (%) ± SD 2 h ([3]; listed as ferulic acid): 2%; AerExt Te (%) ± SD 24 h ([3]; listed as ferulic acid): 20%; RootExt Te (%) ± SD 2 h [3]: n.q.; RootExt Te (%) ± SD 4 h [3]: n.q.; RootExt Te (%) ± SD 24 h [3]: n.q.
24 | COc1cc2ccc(=O)oc2c(O)c1OC [Fraxidin] | 1.5 | −4.81 |  |  |  | AerExt log Pe [2]: −4.82
25 | CC(=O)OC(C)(C)[C@@H]1CC[C@H](C)C2=C(C1)[C@@H](C)CC2 [Guaiol acetate] | 3.6 | −5.05 |  |  |  | AerExt log Pe [2]: n.q.
26 | COc1cc2ccc(=O)oc2c(OC)c1O [Isofraxidin] | 1.5 |  | n.q. | n.q. | n.q. | RootExt Te (%) ± SD 2 h [3]: n.q.; RootExt Te (%) ± SD 4 h [3]: n.q.; RootExt Te (%) ± SD 24 h [3]: 30.5 ± 6.6%
27 | CC1(C)C[C@H](O)C[C@@]2(C)OC(=O)C=C12 [Loliolide] | 1.0 |  | 6.2 ± 0.7% | 12.1 ± 0.8% | 12.4 ± 0.8% | 
28 | O=c1cc(-c2ccc(O)c(O)c2)oc2cc(O)cc(O)c12 [Luteolin] |  |  |  |  |  | crossing of the HBMEC-BBB [3]: could not cross the HBMEC-BBB; Papp at 4 h [2]: 26.3 ×10⁻⁶ cm/s
29 | c1ccc2c(c1)[nH]c1cnccc12 [Norharman] | 3.2 |  | 2.3 ± 0.1% | 5.3 ± 1.4% | 4.1 ± 0.2% | 
30 | C[C@@H]1CC[C@H]2C(C(=O)O)=C[C@@H]3[C@@H](O)C(C)(C)C[C@@]132 [Pentalenic acid] | 2.7 |  |  |  |  | 
31 | O=Cc1ccc(O)c(O)c1 [Protocatechuic aldehyde] | 1.3 |  | n.q. | n.q. | n.q. | crossing of the HBMEC-BBB [3]: could not cross the HBMEC-BBB; RootExt Te (%) ± SD 2 h [3]: n.q.; RootExt Te (%) ± SD 4 h [3]: n.q.
32 | COc1cc(/C=C/C(=O)O)ccc1OS(=O)(=O)O [ferulic acid sulfate] |  |  |  |  |  | abundance in the apical compartment relative to the basolateral compartment (times higher) [3]: ~40 times; Te of newly formed sulfated metabolites [3]: 2.3%
33 | C=C(C)[C@@H]1CC[C@@]2(C)CCC(=O)C(C)=C2C1 [α-cyperone] | 3.8 |  | 12.2 ± 0.1% | 25.1 ± 1.4% | 56.5 ± 6.5% | RootExt Te (%) ± SD 2 h [3]: 15.4 ± 2.6%; RootExt Te (%) ± SD 4 h [3]: 20.1 ± 12.0%; RootExt Te (%) ± SD 24 h [3]: 187% and 187.3 ± 12.5%
34 | apigenin sulfate |  |  |  |  |  | abundance in the apical compartment relative to the basolateral compartment (times higher) [3]: ~40 times; Te of newly formed sulfated metabolites [3]: 2.7%
